Converted amounts (≈) assume the structure as drawn.
Key:
Candida albicans [1] = experiment: Minimum inhibitory concentration against Candida albicans was determined; assay type: functional
Enterococcus faecium [2] = experiment: Minimum inhibitory concentration against Enterococcus faecium was determined; Range is 2-4 ug/mL; assay type: functional
Enterococcus faecalis [3] = experiment: Minimum inhibitory concentration against Enterococcus faecalis was determined; Range is 2-4 ug/mL; assay type: functional
[4] = Minimum inhibitory concentration against Gram(-) sp. was determined; Range is 32->128 ug/mL; assay type: functional
Mus musculus = experiment: In vivo activity against Staphylococcus aureus smith was determined after iv administration in mice; assay type: functional
Staphylococcus aureus [5] = experiment: Minimum inhibitory concentration against Staphylococcus aureus smith; assay type: functional
Staphylococcus aureus [6] = experiment: Minimum inhibitory concentration against Staphylococcus aureus (MRCNS) was determined; Range is 0.25-1 ug/mL; assay type: functional
Staphylococcus aureus [7] = experiment: Minimum inhibitory concentration against Staphylococcus aureus (MRSA) was determined; Range is […] ug/mL; assay type: functional
Staphylococcus aureus [8] = experiment: Minimum inhibitory concentration against Staphylococcus aureus (MSCNS) was determined; Range is <=0.12-0.5 ug/mL; assay type: functional
Streptococcus [9] = experiment: Minimum inhibitory concentration against Streptococcus was determined; assay type: functional
Staphylococcus aureus [10] = experiment: Minimum inhibitory concentration against Staphylococcus aureus (MSSA) was determined; Range is 1-4 ug/mL; assay type: functional
Enterococcus faecalis [11] = experiment: Minimum inhibitory concentration against Enterococcus faecalis was determined; assay type: functional
[12] = Minimum inhibitory concentration against Gram(-) sp. was determined; assay type: functional
Staphylococcus aureus [13] = experiment: Minimum inhibitory concentration against Staphylococcus aureus (MRCNS) was determined; Range is 1-4 ug/mL; assay type: functional
Staphylococcus aureus [14] = experiment: Minimum inhibitory concentration against Staphylococcus aureus (MRSA) was determined; assay type: functional
Staphylococcus aureus [15] = experiment: Minimum inhibitory concentration against Staphylococcus aureus (MSCNS) was determined; Range is 0.5-1 ug/mL; assay type: functional
Staphylococcus aureus [16] = experiment: Minimum inhibitory concentration against Staphylococcus aureus (MSSA) was determined; Range is 2-4 ug/mL; assay type: functional
Escherichia coli [17] = experiment: Minimum inhibitory concentration against Escherichia coli (GC 2203) was determined; assay type: functional
Enterococcus faecalis [18] = experiment: Minimum inhibitory concentration against Enterococcus faecalis (GC 2242) was determined; assay type: functional
Enterococcus faecalis [19] = experiment: Minimum inhibitory concentration against Enterococcus faecalis (GC 2691) was determined; assay type: functional
Enterococcus avium = experiment: Minimum inhibitory concentration against Enterococcus avium (GC 4558) was determined; assay type: functional
Enterococcus faecalis [20] = experiment: Minimum inhibitory concentration against Enterococcus faecalis (GC 4552) was determined; assay type: functional
Enterococcus faecalis [21] = experiment: Minimum inhibitory concentration against Enterococcus faecalis (GC 4553) was determined; assay type: functional
Enterococcus faecalis [22] = experiment: Minimum inhibitory concentration against Enterococcus faecalis (GC 4554) was determined; assay type: functional
Escherichia coli [23] = experiment: Minimum inhibitory concentration against Escherichia coli (GC 4560) was determined; assay type: functional
Escherichia coli [24] = experiment: Minimum inhibitory concentration against Escherichia coli (GC 4564) was determined; assay type: functional
Enterococcus faecium [25] = experiment: Minimum inhibitory concentration against Enterococcus faecium (GC 2243) was determined; assay type: functional
Enterococcus faecalis [26] = experiment: Minimum inhibitory concentration against Enterococcus faecalis (GC 4555) was determined; assay type: functional
Enterococcus faecalis [27] = experiment: Minimum inhibitory concentration against Enterococcus faecalis (GC 6189) was determined; assay type: functional
Morganella morganii = experiment: Minimum inhibitory concentration against Morganella morganii (GC 4381) was determined; assay type: functional
Pseudomonas aeruginosa = experiment: Minimum inhibitory concentration against Pseudomonas aeruginosa (GC 2214) control was determined; assay type: functional
Micrococcus luteus = experiment: Minimum inhibitory concentration against Sarcina lutea (GC 4562) was determined; assay type: functional
[28] = Minimum inhibitory concentration against SCN (GC 4548) was determined; assay type: functional
[29] = Minimum inhibitory concentration against SCN (GC 4549) was determined; assay type: functional
[30] = Minimum inhibitory concentration against SCN (GC 4551) was determined; assay type: functional
[31] = Minimum inhibitory concentration against SCN (GC 6257) was determined; assay type: functional
[32] = Minimum inhibitory concentration against SCN (GC 4547) was determined; assay type: functional
Streptococcus pyogenes = experiment: Minimum inhibitory concentration against Streptococcus pyogenes (GC 4563) was determined; assay type: functional
Streptococcus agalactiae = experiment: Minimum inhibitory concentration against Streptococcus agalactiae (GC4564) was determined; assay type: functional
Streptococcus pneumoniae [33] = experiment: Minimum inhibitory concentration against Streptococcus pneumoniae (GC 1894) was determined; assay type: functional
Streptococcus pneumoniae [34] = experiment: Minimum inhibitory concentration against Streptococcus pneumoniae (GC 4565) was determined; assay type: functional
Streptococcus pneumoniae [35] = experiment: Minimum inhibitory concentration against Streptococcus pneumoniae (GC 6242) was determined; assay type: functional
Streptococcus [36] = experiment: Minimum inhibitory concentration against Streptococcus was determined; Range is <=0.12-0.5 ug/mL; assay type: functional
Enterococcus faecalis [37] = experiment: Minimum inhibitory concentration against Enterococcus faecalis (GC 3059) was determined; assay type: functional
Candida albicans [38] = experiment: Minimum inhibitory concentration against Candida albicans GC 3066 was determined; assay type: functional
Enterococcus faecalis [39] = experiment: microbe, parasite or virus in culture
[40] = test system: Staphylococcus haemolyticus; experiment: Minimum inhibitory concentration against Staphylococcus haemolyticus (GC 4546) was determined
[41] = Mus musculus, iv, read-out: ED50

C[C@@H](c1ccccc1)[C@@H]1NC(=O)CNC(=O)[C@H](CO)NC(=O)[C@@H]([C@@H](O)[C@@H]2CN=C(N)N2[C@H]2O[C@H](O)[C@@H](O)[C@H](O)[C@@H]2O)NC(=O)[C@H]([C@@H](O)[C@@H]2CN=C(N)N2)NC(=O)[C@@H](Cc2ccc(O[C@H]3O[C@H](CO)[C@@H](O[C@H]4O[C@H](CO)[C@@H](OCc5ccc(OCc6ccccc6)cc5)[C@H](O)[C@@H]4O)[C@H](O)[C@@H]3O)cc2)NC1=O
MIC (Candida albicans [1]): > 128 µg/mL | MIC (Enterococcus faecium [2]): 2 µg/mL (≈ 1.35 µM) | MIC (Enterococcus faecalis [3]): 2 µg/mL (≈ 1.35 µM) | MIC [4]: 32 µg/mL (≈ 21.7 µM) | ED50 (Mus musculus; [41]): 0.06 mg/kg | MIC (Staphylococcus aureus [5]): 1 µg/mL (≈ 0.677 µM) | MIC (Staphylococcus aureus [6]): 0.25 µg/mL (≈ 0.169 µM) | MIC (Staphylococcus aureus [7]): 1 µg/mL (≈ 0.677 µM) | MIC (Staphylococcus aureus [8]): ≤ 0.12 µg/mL | MIC (Streptococcus [9]): < 0.12 µg/mL | MIC (Staphylococcus aureus [10]): 1 µg/mL (≈ 0.677 µM)

C[C@@H](c1ccccc1)[C@@H]1NC(=O)CNC(=O)[C@H](CO)NC(=O)[C@@H]([C@@H](O)[C@@H]2CN=C(N)N2[C@H]2O[C@H](O)[C@@H](O)[C@H](O)[C@@H]2O)NC(=O)[C@H]([C@@H](O)[C@@H]2CN=C(N)N2)NC(=O)[C@@H](Cc2ccc(O[C@H]3O[C@H](CO)[C@@H](OC4O[C@H](COCc5ccc(OCc6ccccc6)cc5)[C@@H](O)[C@H](O)[C@@H]4O)[C@H](O)[C@@H]3O)cc2)NC1=O (stereo partly specified)
MIC (Candida albicans [1]): > 128 µg/mL | MIC (Enterococcus faecium [2]): 2 µg/mL (≈ 1.35 µM) | MIC (Enterococcus faecalis [11]): 4 µg/mL (≈ 2.71 µM) | MIC [12]: > 128 µg/mL | ED50 (Mus musculus; [41]): 0.25 mg/kg | MIC (Staphylococcus aureus [5]): 2 µg/mL (≈ 1.35 µM) | MIC (Staphylococcus aureus [13]): 1 µg/mL (≈ 0.677 µM) | MIC (Staphylococcus aureus [14]): 4 µg/mL (≈ 2.71 µM) | MIC (Staphylococcus aureus [15]): 0.5 µg/mL (≈ 0.338 µM) | MIC (Streptococcus [9]): ≤ 0.12 µg/mL | MIC (Staphylococcus aureus [16]): 2 µg/mL (≈ 1.35 µM)

CN[C@H](CC(C)C)C(=O)N[C@H]1C(=O)N[C@@H](CC(N)=O)C(=O)N[C@H]2C(=O)N[C@H]3C(=O)N[C@H](C(=O)N[C@H](C(=O)O)c4cc(O)cc(O)c4-c4cc3ccc4O)[C@H](O)c3ccc(c(Cl)c3)Oc3cc2cc(c3O[C@@H]2O[C@H](CO)[C@@H](O)[C@H](O)[C@H]2O[C@H]2C[C@](C)(N)[C@H](O)[C@H](C)O2)Oc2ccc(cc2Cl)[C@H]1O [VANCOMYCIN]
MIC (Candida albicans [1]): > 128 µg/mL | MIC (Escherichia coli [17]): > 64 µg/mL | MIC (Enterococcus faecalis [18]): > 64 µg/mL | MIC (Enterococcus faecalis [19]): 1 µg/mL (≈ 0.69 µM) | MIC (Enterococcus avium): > 64 µg/mL | MIC (Enterococcus faecalis [20]): 1 µg/mL (≈ 0.69 µM) | MIC (Enterococcus faecalis [21]): 0.5 µg/mL (≈ 0.345 µM) | MIC (Enterococcus faecalis [22]): 0.5 µg/mL (≈ 0.345 µM) | MIC (Escherichia coli [23]): 0.5 µg/mL (≈ 0.345 µM) | MIC (Escherichia coli [24]): > 64 µg/mL | MIC (Enterococcus faecium [25]): > 64 µg/mL | MIC (Enterococcus faecalis [26]): 2 µg/mL (≈ 1.38 µM) | MIC (Enterococcus faecalis [27]): > 64 µg/mL | MIC [12]: > 128 µg/mL | ED50 (Mus musculus): 1 mg/kg | ED50 (Mus musculus; [41]): 0.5 mg/kg | MIC (Morganella morganii): > 64 µg/mL | MIC (Pseudomonas aeruginosa): > 64 µg/mL | MIC (Micrococcus luteus): 1 µg/mL (≈ 0.69 µM) | MIC [28]: 2 µg/mL (≈ 1.38 µM) | MIC [29]: 0.5 µg/mL (≈ 0.345 µM) | MIC [30]: 2 µg/mL (≈ 1.38 µM) | MIC [31]: 0.5 µg/mL (≈ 0.345 µM) | MIC [32]: 2 µg/mL (≈ 1.38 µM) | MIC (Streptococcus pyogenes): 0.25 µg/mL (≈ 0.173 µM) | MIC (Streptococcus agalactiae): 0.5 µg/mL (≈ 0.345 µM) | MIC (Streptococcus pneumoniae [33]): 0.12 µg/mL (≈ 0.0828 µM) | MIC (Streptococcus pneumoniae [34]): 0.25 µg/mL (≈ 0.173 µM) | MIC (Streptococcus pneumoniae [35]): 0.5 µg/mL (≈ 0.345 µM) | MIC (Streptococcus [36]): ≤ 0.12 µg/mL | MIC (Enterococcus faecalis [37]): > 64 µg/mL | MIC (Candida albicans [38]): > 64 µg/mL | MIC (Enterococcus faecalis [39]): 0.5 µg/mL (≈ 0.345 µM) | MIC [40]: 1 µg/mL (≈ 0.69 µM)

Source: ChEMBL document CHEMBL1136657, “Novel ether derivatives of mannopeptimycin glycopeptide antibiotic” (2003)
